Laboratory results reported in patent US20250137050A1, “METHODS AND COMPOSITIONS FOR DETERMINING RISK OF AUTISM SPECTRUM DISORDERS” (The Regents of the University of California, priority 2021, published 2025).
“Also recorded” adds a separate entry of the source.

What was measured:
Type in all cases: cell-based, human
[1] = tested on: LUHMES cells; assay: Cell viability (CellTiter Blue) of LUHMES cells after hypoxia mimetic; conditions: differentiated LUHMES neurons compared with undifferentiated; CoCl2 for 24 hours
Description: (§1) LUHMES cells (ATCC, Manassas, VA, USA, CRL-2927) were seeded on fibronectin coated plates (Thermo Fisher Scientific, Waltham, MA, USA, CWP001, 354402). Undifferentiated cells were maintained in proliferation medium: Advanced DMEM/F12 (Invitrogen, Carlsbad, CA, USA), supplemented with N2 supplement (Invitrogen, Carlsbad, CA, USA), Penicillin-streptomycin-glutamine (Thermo Fisher Scientific, Waltham, MA, USA), and 40 ng/ml recombinant bFGF (Invitrogen, Carlsbad, CA, USA). To generate differentiated LUHMES, cells were switched to differentiation media for five days. […] For RNA quantification, cells were maintained in 6-well plates. […]
(§2) All cells were maintained at 37° C. containing […] and 5% CO2. […] Cell numbers were measured using disposable countess chamber slide on Countess II FL automated cell counter (Thermo Fisher Scientific, Waltham, MA, USA) under the default steps with mixing 10 μl of samples with 10 μl of trypan blue. CellTiter Blue reagent was used for measured cell viability using […] based on manufacturer instruction (Promega, Madison, WI, USA). H2O2 production represented relative reactive oxygen species (ROS) level was measured with the ROS-Glo H2O2 assay system using 50 nM with the default setting with level measured by luminometer (Promega, Madison, WI, USA).

[2] = tested on: LUHMES cells; assay: Reactive oxygen species (ROS-Glo H2O2 assay) in LUHMES cells after hypoxia mimetic; conditions: differentiated LUHMES neurons compared with undifferentiated; 100 nM CoCl2 for 24 hours
Description: as §1, §2

[3] = tested on: NHIP; assay: NHIP transcript levels by RT-qPCR in LUHMES cells after hypoxia mimetic; conditions: differentiated LUHMES cells
Description: as §1, with “days. Differentiation media: Advanced DMEM/F12, supplemented with N2 supplement, Penicillin-streptomycin-glutamine, 1 mM dbcAMP (MilliporeSigma, Burlington, MA, USA), 1 μg/ml tetracycline (Neta Scientific, Hainesport, NJ, USA), and 2 ng/ml recombinant human GDNF (Thermo Fisher Scientific, Waltham, MA, USA).” for “days.”
Total RNA was isolated from HEK293T cells transiently transfected with NHIP-eGFP or negative control NEG-eGFP using AllPrep DNA/RNA/Protein mini kit (Qiagen, Hilden, Germany). […] Fold changes of transcript levels were measured using the Fluidigm Real-Time PCR Analysis software calculated fold change of gene expression as the delta delta CT normalized to GAPDH (Fluidigm, San Francisco, CA, USA).

[Cl][Co][Cl] [CoCl2, cobalt chloride]
cell viability [1]: significant decrease | reactive oxygen species (ROS) levels [2]: increase | NHIP transcript levels ([3]; 100 nM CoCl2 for 24 hours vs mock, normalized to GAPDH): significantly increased | NHIP transcript levels after removal of hypoxia mimetic ([3]; 48 hours of recovery (Day 8) after 24 hours of CoCl2): returned to untreated levels; also recorded: returned to mock control baseline levels
